Test results reported in ChEMBL document CHEMBL3120132, “Antiviral compounds for the treatment of HCV” (ACS Med Chem Lett, 2014).
pIC50: −log10 of the molar value.

Test system: Hepatitis C virus
Assay: Antiviral activity against Hepatitis C virus Con1 genotype 1b expressing NS3 infected in human 2209-23 cells assessed as inhibition of viral replication after 72 hrs by luciferase reporter gene assay
Type: functional, organism-based, Hepacivirus hominis
Conditions: isolate Con1, 2209-23, 72 h

In order of rising pIC50:
1. COC(=O)[C@@H]1C[C@H](NC(=O)c2ccc3ccccc3c2O)CN1Cc1ccccc1  10.10
2. CCOC(=O)[C@@H]1C[C@H](NC(=O)c2ccc3ccccc3c2O)CN1CC(C)C  10.26
3. CCOC(=O)[C@@H]1C[C@H](NC(=O)c2ccc3ccccc3c2O)CN1CC1CCC1  10.28
4. COC(=O)[C@@H]1C[C@H](NC(=O)c2ccc3ccccc3c2O)CN1CCC(C)(C)C  10.29
5. COC(=O)[C@@H]1C[C@H](NC(=O)c2ccc3ccccc3c2O)CN1CC1CCCCC1  10.33
6. CCOC(=O)[C@@H]1C[C@H](NC(=O)c2ccc3ccccc3c2O)CN1CC1CCCC1  10.54
